Measured values taken from US20080312192A1, “Diaryl Urea Derivatives in the Treatment of Protein Kinase Dependent Diseases” (priority 2003, published 2008).

Target: T1, Flt-3 (Homo sapiens, UniProt P36888)
T1 construct: amino acids 563-993 of the cytoplasmic kinase domain of human Flt-3; made in house; host or cells: Sf9 insect cells (baculovirus, vector pFbacG01)
T1 sequence (P36888 563-993): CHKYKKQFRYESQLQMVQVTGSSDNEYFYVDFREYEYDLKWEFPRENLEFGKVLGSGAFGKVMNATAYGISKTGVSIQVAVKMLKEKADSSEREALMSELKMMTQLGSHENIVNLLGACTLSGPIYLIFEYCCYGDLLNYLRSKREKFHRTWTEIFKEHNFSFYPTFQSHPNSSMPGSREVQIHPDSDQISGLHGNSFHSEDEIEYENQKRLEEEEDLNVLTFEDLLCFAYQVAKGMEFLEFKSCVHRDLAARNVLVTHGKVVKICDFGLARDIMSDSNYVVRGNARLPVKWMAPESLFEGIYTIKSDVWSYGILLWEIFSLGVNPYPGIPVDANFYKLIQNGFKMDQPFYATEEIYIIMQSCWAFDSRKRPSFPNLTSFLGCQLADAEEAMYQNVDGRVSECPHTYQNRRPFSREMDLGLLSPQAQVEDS
Test: Flt-3 kinase inhibition (GST-Flt-3, 33P incorporation into poly(Glu,Tyr))
Assay type: biochemical
Procedure, shortened: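 GST-fused human Flt-3 kinase domain (aa 563-993) from Sf9 cells assayed with 3 μg/mL poly(Glu,Tyr) 4:1, 8.0 μM ATP plus [γ-33P]ATP, Mn2+/Mg2+, pH 7.6, 20 min at ambient temperature. 33P incorporation counted on PVDF; IC50 by linear regression, duplicates at four concentrations (usually 0.01-10 μM).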

Structure (SMILES)	IC50
Nc1cc(Oc2ccc(NC(=O)Nc3cc(CN4CCC4)cc(C(F)(F)F)c3)cc2)ncn1 [Example 4, N-[4-(6-Amino-pyrimidin-4-yloxy)-phenyl]-N′-(3-azetidin-1-ylmethyl-5-trifluoromethyl-phenyl)-urea]	153 nM
CC(C)N1CCN(Cc2ccc(NC(=O)Nc3ccc(Oc4cc(N)ncn4)cc3)cc2C(F)(F)F)CC1 [Example 19, N-[4-(6-Amino-pyrimidin-4-yloxy)-phenyl]-N′-[4-(4-isopropylpiperazin-1-ylmethyl)-3-trifluoromethyl-phenyl]-urea]	250 nM
CC(C)(C)N1CCN(Cc2ccc(NC(=O)Nc3ccc(Oc4ccnc(N)n4)cc3)cc2C(F)(F)F)CC1 [Example 50]	120 nM
CNc1cc(Oc2ccc(NC(=O)Nc3cc(CN4CCN(C(C)C)CC4)cc(C(F)(F)F)c3)cc2)ncn1 [Example 6, N-[4-(6-Methylamino-pyrimidin-4-yloxy)-phenyl]-N′-[3-(4-isopropylpiperazin-1-ylmethyl)-5-trifluoromethyl-phenyl]-urea]	400 nM
Cc1ncn(Cc2ccc(NC(=O)Nc3ccc(Oc4ccnc(N)n4)cc3)cc2C(F)(F)F)c1C [Example 51a.1, 1-[4-(2-Amino-pyrimidin-4-yloxy)-phenyl]-3-(4-(4,5-dimethyl-imidazol-1-ylmethyl)-3-trifluoromethyl-phenyl]-urea]	85 nM

Further lines, results first:

IC50	Structure (SMILES)
120 nM	CN1CCN(Cc2ccc(NC(=O)Nc3ccc(Oc4ccnc(N)n4)cc3)cc2C(F)(F)F)CC1 [Example 52a, 1-[4-(2-amino-pyrimidin-4-yloxy)-phenyl]-3-[4-(4-methylpiperazin-1-ylmethyl)-3-trifluoromethyl-phenyl]-urea]
29 nM	CCN1CCN(Cc2ccc(NC(=O)Nc3ccc(Oc4ccnc(N)n4)cc3)cc2C(F)(F)F)CC1 [Example 52c, 1-[4-(2-Amino-pyrimidin-4-yloxy)-phenyl]-3-[4-(4-ethyl-piperazin-1-ylmethyl)-3-trifluoromethyl-phenyl]-urea]
190 nM	CNc1nccc(Oc2ccc(NC(=O)Nc3ccc(N4CCN(C)CC4)c(C(F)(F)F)c3)cc2)n1 [Example 53d, 1-[4-(2-Methylamino-pyrimidin-4-yloxy)-phenyl]-3-[4-(4-methyl-piperazin-1-yl)-3-trifluoromethyl-phenyl]-urea]
120 nM	CNc1nccc(Oc2ccc(NC(=O)Nc3cc(N4CCN(C)CC4)cc(C(F)(F)F)c3)cc2)n1 [Example 53b, 1-[4-(2-Methylamino-pyrimidin-4-yloxy)-phenyl]-3-[3-(4-methyl-piperazin-1-yl)-5-trifluoromethyl-phenyl]-urea]
